Experimental findings from ChEMBL document CHEMBL2396635, “Design, synthesis, and DNA binding characteristics of a group of orthogonally positioned diamino, N-formamido, pyrrole- and imidazole-containing polyamides” (Bioorg Med Chem, 2013) are described below.

Usually ΔTm stands for the change in melting temperature against a reference sample.

Molecules are shown by their SMILES. Calls of active or inactive are those of the source. No cut-off for these calls is given here.

Experiment [1] is described as follows: Selectivity for 5'-TACGAT-3' of topoisomerase 2alpha promoter (unknown origin) over 5'-CTGCTTC-3' of topoisomerase 2alpha promoter (unknown origin).
Experiment [2] is described as follows: Binding affinity to 5'-CTGCTTC-3' of topoisomerase 2alpha promoter (unknown origin) in Tris buffer at pH 7 at 30 uM by DNA footprinting.
Experiment [3] is described as follows: Binding affinity to 5'-TACGAT-3' of topoisomerase 2alpha promoter (unknown origin) in Tris buffer at pH 7 at 10 uM by DNA footprinting.
For experiment [4], the system named is Nucleic Acid. In words: Binding affinity to 5'-ATCGAT-3' of hairpin DNA (unknown origin) in cacodylic acid buffer at pH 6.5 assessed as change in melting temperature at 3 uM by thermal denaturation assay. It is filed as nucleic-acid assay.
Experiment [5] in a line: Binding affinity to 5'-ATCGAT-3' DNA (unknown origin) at 80 uM at 25 degC by ITC method.
A short description of experiment [6]: Binding affinity to 5'-ATCGAT-3' of hairpin DNA (unknown origin) in cacodylic acid buffer at pH 6.5 at 25 degC by SPR analysis.
Experiment [7] concerns Nucleic Acid. In words: Binding affinity to 5'-ACGCGT-3' of hairpin DNA (unknown origin) in cacodylic acid buffer at pH 6.5 assessed as change in melting temperature at 3 uM by thermal denaturation assay. Format: nucleic-acid assay.
Experiment [8] can be described thus: Binding affinity to 5'-ACGCGT-3' of hairpin DNA (unknown origin) in cacodylic acid buffer at pH 6.5 at 25 degC by SPR analysis.
The nature of experiment [9]: Binding affinity to 5'-ACGCGT-3' DNA (unknown origin) at 80 uM at 25 degC by ITC method. (In general: ITC needs no label: the signal is the heat of the interaction.)
Experiment [10] has as its system Nucleic Acid. The experiment in a line: Binding affinity to 5'-ATGCAT-3' of hairpin DNA (unknown origin) in cacodylic acid buffer at pH 6.5 assessed as change in melting temperature at 3 uM by thermal denaturation assay. Format: nucleic-acid assay.
Experiment [11] is described as follows: Binding affinity to 5'-ATCGAT-3' of 11 bp hairpin DNA oligonucleotide (unknown origin) in cacodylic acid buffer at pH 6.5 at 25 degC by SPR analysis.
A short description of experiment [12]: Binding affinity to 5'-AAATTT-3' of hairpin DNA (unknown origin) in cacodylic acid buffer at pH 6.5 at 25 degC by SPR analysis. For orientation: SPR reads the build-up and loss of mass on a sensor chip optically.
The subject of experiment [13] is Nucleic Acid. In words: Binding affinity to 5'-AAATTT-3' of hairpin DNA (unknown origin) in cacodylic acid buffer at pH 6.5 assessed as change in melting temperature at 3 uM by thermal denaturation assay. It is filed as nucleic-acid assay.
Experiment [14] in a line: Binding affinity to 5'-ATGCAT-3' of 11 bp hairpin DNA oligonucleotide (unknown origin) in cacodylic acid buffer at pH 6.5 at 25 degC by SPR analysis.
A short description of experiment [15]: Binding affinity to 5'-ATGCAT-3' DNA (unknown origin) at 80 uM at 25 degC by ITC method.
A short description of experiment [16]: Binding affinity to 5'-ACTAGT-3' of DNA fragment (unknown origin) in Tris buffer at pH 7 at 1 uM by DNA footprinting.
A short description of experiment [17]: Binding affinity to 5'-ATGCAT-3' of hairpin DNA (unknown origin) in 10 mM phosphate buffer at pH 6.2 at 1 mol equivalent of compound by CD titration method.
Experiment [18] in a line: Binding affinity to 5'-ATGCAT-3' of hairpin DNA (unknown origin) in cacodylic acid buffer at pH 6.5 at 25 degC by SPR analysis.
The nature of experiment [19]: Binding affinity to 5'-ATGCAT-3' of DNA fragment (unknown origin) in Tris buffer at pH 7 at 1 uM by DNA footprinting.
The nature of experiment [20]: Binding affinity to 5'-ACGCGT-3' of DNA fragment (unknown origin) in Tris buffer at pH 7 at 1 uM by DNA footprinting.
Experiment [21] can be described thus: Binding affinity to 5'-AAATTT-3' of DNA fragment (unknown origin) in Tris buffer at pH 7 at 20 uM by DNA footprinting.
The nature of experiment [22]: Binding affinity to 5'-AAATTT-3' DNA (unknown origin) at 80 uM at 25 degC by ITC method.
Experiment [23] is described as follows: Binding affinity to 5'-AAATTT-3' of 11 bp hairpin DNA oligonucleotide (unknown origin) in cacodylic acid buffer at pH 6.5 at 25 degC by SPR analysis.
Experiment [24] in a line: Binding affinity to 5'-ACGCGT-3' of 11 bp hairpin DNA oligonucleotide (unknown origin) in cacodylic acid buffer at pH 6.5 at 25 degC by SPR analysis.
Experiment [25] is described as follows: Binding affinity to 5'-ATCGAT-3' of hairpin DNA (unknown origin) in 10 mM phosphate buffer at pH 6.2 at 1 mol equivalent of compound by CD titration method.
The nature of experiment [26]: Binding affinity to 5'-AAATTT-3' of hairpin DNA (unknown origin) in 10 mM phosphate buffer at pH 6.2 at 1 mol equivalent of compound by CD titration method.
A short description of experiment [27]: Binding affinity to 5'-AAATTT-3' of DNA fragment (unknown origin) in Tris buffer at pH 7 at 30 uM by DNA footprinting.
Experiment [28] can be described thus: Binding affinity to 5'-ACGCGT-3' of hairpin DNA (unknown origin) in 10 mM phosphate buffer at pH 6.2 at 1 mol equivalent of compound by CD titration method.
Experiment [29] in a line: Binding affinity to 5'-ACGCGT-3' of DNA fragment (unknown origin) in Tris buffer at pH 7 at 0.05 uM by DNA footprinting.

With `CN(C)CCCNC(=O)c1cc(NC(=O)c2nc(NC(=O)c3cc(NC=O)cn3C)cn2C)cn1C`, in [1], the Selectivity ratio came to 3. Besides, the outcome in experiment [2], in experiment [3] and in experiment [5] was Active. Further, the shift in melting temperature (ΔTm) in the experiment on Nucleic Acid [4] came out at 0 °C; in the experiment on Nucleic Acid [7], 3 °C. The same molecule came in with a Ke in [6] of 2 ×10⁵ /M.
For the molecule `CN(C)CCNC(=O)c1nc(NC(=O)c2cc(NC(=O)c3nc(NC=O)cn3C)cn2C)cn1C`, the Ke is 5.4 ×10⁷ /M in experiment [8], 1 ×10⁵ /M in experiment [11], 5.3 ×10⁴ /M in [12] and 1.2 ×10⁷ /M in experiment [14]. In experiment [9], the outcome was Active. In addition, the ΔTm is 1 °C in the experiment with Nucleic Acid [4], 9 °C in the experiment with Nucleic Acid [10], 9 °C in the experiment with Nucleic Acid [7] and 1 °C with Nucleic Acid [13].
`CN(C)CCCNC(=O)c1cc(NC(=O)c2cc(NC(=O)c3nc(NC=O)cn3C)cn2CCCN)cn1C`: the results for the Ke in experiment [8], in [18] and in experiment [6] were 2.3 ×10⁶ /M, 1.3 ×10⁸ /M and 2.7 ×10⁶ /M, respectively. Also, the outcome in experiment [15], in experiment [16], in experiment [17], in experiment [19] and in experiment [20] was Active. The ΔTm with Nucleic Acid [4] was 7 °C; in the experiment with Nucleic Acid [10] it was 26 °C; in the experiment on Nucleic Acid [7], 0 °C; in the experiment on Nucleic Acid [13] it was 0 °C.
As for `CN(C)CCCNC(=O)c1cc(NC(=O)c2cc(NC(=O)c3cc(NC=O)cn3C)cn2C)cn1C`, the outcome in experiment [21] and in experiment [22] was Active. In addition, the shift in melting temperature (ΔTm) in the experiment with Nucleic Acid [4] came out at 1 °C; with Nucleic Acid [13], 9 °C. Further, the Ke in experiment [23] was determined as 3.2 ×10⁶ /M.
For the molecule `CN(C)CCCNC(=O)c1cc(NC(=O)c2cc(NC(=O)c3nc(NC=O)cn3C)cn2C)cn1C`, in [15], the result was Active. Further, the ΔTm stood at 3 °C in the experiment on Nucleic Acid [4], 11 °C in the experiment on Nucleic Acid [10] and 2 °C in the experiment with Nucleic Acid [7]. The values for the Ke in experiment [11], in experiment [24] and in [14] were 9.4 ×10⁴ /M, 8.8 ×10⁴ /M and 1.2 ×10⁷ /M, respectively.
In the case of `CN(C)CCCNC(=O)c1cc(NC(=O)c2nc(NC(=O)c3cc(NC=O)cn3CCCN)cn2C)cn1C`, the Selectivity ratio in experiment [1] was 3. For the same molecule, the result in experiment [25], in experiment [2], in experiment [3] and in experiment [5] was Active. The ΔTm is 0 °C in the experiment on Nucleic Acid [4], 0 °C with Nucleic Acid [7] and 10 °C with Nucleic Acid [13]. The same molecule yielded a Ke in experiment [6] of under 1 ×10⁵ /M.
For `CN(C)CCCNC(=O)c1cc(NC(=O)c2cc(NC(=O)c3cc(NC=O)cn3C)cn2CCCN)cn1C`, the result in [26], in experiment [27], in [21] and in experiment [22] was Active. The thermal shift (ΔTm) turned out to be 10 °C with Nucleic Acid [4], 0 °C in the experiment with Nucleic Acid [7] and 25 °C in the experiment with Nucleic Acid [13]. The molecule further gave a Ke in experiment [12] of 4.8 ×10⁷ /M.
For the molecule `CN(C)CCNC(=O)c1nc(NC(=O)c2cc(NC(=O)c3nc(NC=O)cn3C)cn2CCCN)cn1C`, the figures for the Ke in [8], in [18] and in experiment [6] were 2.4 ×10⁸ /M, 3.5 ×10⁷ /M and 1.7 ×10⁶ /M, respectively. Also, the outcome in experiment [9], in [28] and in experiment [29] was Active. Besides, the ΔTm in the experiment with Nucleic Acid [4] is 11 °C; in the experiment on Nucleic Acid [10], 24 °C; in the experiment on Nucleic Acid [7] it was over 24 °C; with Nucleic Acid [13], 10 °C.
